According to PubChem BioAssay (NCI):
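All cell lines were grown in 96-well plates and treated with compound for 48 hours. Definition used: TGI = concentration required for complete inhibition of growth.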

Key:
Assay in all cases: DTP human tumour cell line panel, 48 h
SN12C renal = system: SN12C renal
NCI/ADR-RES ovarian = system: NCI/ADR-RES ovarian
SF-295 CNS = system: SF-295 CNS
COLO 205 colon = system: COLO 205 colon
SK-MEL-28 melanoma = system: SK-MEL-28 melanoma
SK-OV-3 ovarian = system: SK-OV-3 ovarian
OVCAR-8 ovarian = system: OVCAR-8 ovarian
HOP-62 NSCLC = system: HOP-62 NSCLC
ACHN renal = system: ACHN renal
HCT-15 colon = system: HCT-15 colon
MDA-N = system: MDA-N
KM12 colon = system: KM12 colon
A549 NSCLC = system: A549 NSCLC
HOP-92 NSCLC = system: HOP-92 NSCLC
DU-145 prostate = system: DU-145 prostate
SF-268 CNS = system: SF-268 CNS
MDA-MB-231 breast = system: MDA-MB-231 breast
786-0 renal = system: 786-0 renal
MDA-MB-435 = system: MDA-MB-435
HT29 colon = system: HT29 colon
NCI-H23 lung = system: NCI-H23 lung
LOX IMVI melanoma = system: LOX IMVI melanoma
NCI-H522 lung = system: NCI-H522 lung
A498 renal = system: A498 renal
OVCAR-5 ovarian = system: OVCAR-5 ovarian
EKVX NSCLC = system: EKVX NSCLC
SK-MEL-5 melanoma = system: SK-MEL-5 melanoma
NCI-H226 lung = system: NCI-H226 lung
MCF7 breast = system: MCF7 breast
SNB-75 CNS = system: SNB-75 CNS
NCI-H460 lung = system: NCI-H460 lung
OVCAR-3 ovarian = system: OVCAR-3 ovarian
HCC-2998 colon = system: HCC-2998 colon
UO-31 renal = system: UO-31 renal
CAKI-1 renal = system: CAKI-1 renal
SK-MEL-2 melanoma = system: SK-MEL-2 melanoma
M14 melanoma = system: M14 melanoma
U251 CNS = system: U251 CNS
SW-620 colon = system: SW-620 colon
MALME-3M melanoma = system: MALME-3M melanoma
SNB-19 CNS = system: SNB-19 CNS
CCRF-CEM leukemia = system: CCRF-CEM leukemia
T-47D breast = system: T-47D breast
PC-3 prostate = system: PC-3 prostate
BT-549 breast = system: BT-549 breast
IGROV1 ovarian = system: IGROV1 ovarian
OVCAR-4 ovarian = system: OVCAR-4 ovarian
RXF 393 renal = system: RXF 393 renal
UACC-257 melanoma = system: UACC-257 melanoma
HCT-116 colon = system: HCT-116 colon
TK-10 renal = system: TK-10 renal
HL-60(TB) leukemia = system: HL-60(TB) leukemia
HS 578T breast = system: HS 578T breast
SF-539 CNS = system: SF-539 CNS
MOLT-4 leukemia = system: MOLT-4 leukemia
RPMI-8226 leukemia = system: RPMI-8226 leukemia
K-562 leukemia = system: K-562 leukemia
SR leukemia = system: SR leukemia

Work on `CC(C)(C)O/C=C1/C(=O)OC2C[C@@H](O[Si](C)(C)C(C)(C)C)CC12` (some centres not stated) yielded a TGI (SN12C renal) of over 100 µM, a TGI (NCI/ADR-RES ovarian) of over 100 µM and a TGI (SF-295 CNS) of over 100 µM. The TGI (COLO 205 colon) was over 100 µM, the TGI (SK-MEL-28 melanoma) was over 100 µM and the TGI (SK-OV-3 ovarian) was over 100 µM. It also gave a TGI (OVCAR-8 ovarian) of over 100 µM, a TGI (HOP-62 NSCLC) of over 100 µM and a TGI (ACHN renal) of over 100 µM. The TGI (HCT-15 colon) was over 100 µM, the TGI (MDA-N) was over 100 µM and the TGI (KM12 colon) was over 100 µM. The TGI (A549 NSCLC) was over 100 µM, the TGI (HOP-92 NSCLC) was over 100 µM and the TGI (DU-145 prostate) was over 100 µM. For the same compound, the TGI (SF-268 CNS) was over 100 µM, the TGI (MDA-MB-231 breast) was over 100 µM and the TGI (786-0 renal) was over 100 µM. The TGI (MDA-MB-435) was over 100 µM, the TGI (HT29 colon) was over 100 µM and the TGI (NCI-H23 lung) was over 100 µM. It also gave a TGI (LOX IMVI melanoma) of over 100 µM, a TGI (NCI-H522 lung) of 87.4 µM and a TGI (A498 renal) of over 100 µM. For the same compound, the TGI (OVCAR-5 ovarian) was over 100 µM, the TGI (EKVX NSCLC) was over 100 µM and the TGI (SK-MEL-5 melanoma) was over 100 µM. For the same compound, the TGI (NCI-H226 lung) was over 100 µM, the TGI (MCF7 breast) was over 100 µM and the TGI (SNB-75 CNS) was 93.3 µM. For the same compound, the TGI (NCI-H460 lung) was over 100 µM, the TGI (OVCAR-3 ovarian) was over 100 µM and the TGI (HCC-2998 colon) was over 100 µM. For the same compound, the TGI (UO-31 renal) was over 100 µM, the TGI (CAKI-1 renal) was over 100 µM and the TGI (SK-MEL-2 melanoma) was over 100 µM. The TGI (M14 melanoma) was over 100 µM, the TGI (U251 CNS) was over 100 µM and the TGI (SW-620 colon) was over 100 µM. For the same compound, the TGI (MALME-3M melanoma) was over 100 µM, the TGI (SNB-19 CNS) was over 100 µM and the TGI (CCRF-CEM leukemia) was 88.4 µM. It also gave a TGI (T-47D breast) of over 100 µM, a TGI (PC-3 prostate) of over 100 µM and a TGI (BT-549 breast) of over 100 µM. It also gave a TGI (IGROV1 ovarian) of over 100 µM, a TGI (OVCAR-4 ovarian) of over 100 µM and a TGI (RXF 393 renal) of 73.3 µM. It also gave a TGI (UACC-257 melanoma) of over 100 µM, a TGI (HCT-116 colon) of over 100 µM and a TGI (TK-10 renal) of over 100 µM.
Work on `CCC(Sc1cc(Cl)c(C)cc1S(=O)(=O)Nc1nc(N)nc(N(C)C)n1)C(=O)O` (configuration not stated) yielded a TGI (SN12C renal) of over 10 µM, a TGI (NCI/ADR-RES ovarian) of over 10 µM and a TGI (SF-295 CNS) of over 10 µM. It also gave a TGI (COLO 205 colon) of over 10 µM, a TGI (SK-MEL-28 melanoma) of over 10 µM and a TGI (SK-OV-3 ovarian) of over 10 µM. It also gave a TGI (OVCAR-8 ovarian) of over 10 µM, a TGI (HOP-62 NSCLC) of over 10 µM and a TGI (ACHN renal) of over 10 µM. The TGI (HCT-15 colon) was over 10 µM, the TGI (MDA-N) was over 10 µM and the TGI (KM12 colon) was over 10 µM. It also gave a TGI (A549 NSCLC) of over 10 µM, a TGI (HOP-92 NSCLC) of over 10 µM and a TGI (DU-145 prostate) of over 10 µM. The TGI (SF-268 CNS) was over 10 µM, the TGI (786-0 renal) was over 10 µM and the TGI (HT29 colon) was over 10 µM. For the same compound, the TGI (NCI-H23 lung) was over 10 µM, the TGI (LOX IMVI melanoma) was over 10 µM and the TGI (NCI-H522 lung) was over 10 µM. The TGI (HL-60(TB) leukemia) was over 10 µM, the TGI (A498 renal) was over 10 µM and the TGI (OVCAR-5 ovarian) was over 10 µM. The TGI (HS 578T breast) was over 10 µM, the TGI (EKVX NSCLC) was over 10 µM and the TGI (SK-MEL-5 melanoma) was over 10 µM. For the same compound, the TGI (NCI-H226 lung) was over 10 µM, the TGI (MCF7 breast) was over 10 µM and the TGI (SNB-75 CNS) was over 10 µM. The TGI (NCI-H460 lung) was over 10 µM, the TGI (OVCAR-3 ovarian) was over 10 µM and the TGI (HCC-2998 colon) was over 10 µM. The TGI (UO-31 renal) was over 10 µM, the TGI (CAKI-1 renal) was over 10 µM and the TGI (SF-539 CNS) was over 10 µM. The TGI (SK-MEL-2 melanoma) was over 10 µM, the TGI (M14 melanoma) was over 10 µM and the TGI (MOLT-4 leukemia) was over 10 µM. It also gave a TGI (U251 CNS) of over 10 µM, a TGI (SW-620 colon) of over 10 µM and a TGI (MALME-3M melanoma) of over 10 µM. It also gave a TGI (RPMI-8226 leukemia) of over 10 µM, a TGI (SNB-19 CNS) of over 10 µM and a TGI (CCRF-CEM leukemia) of over 10 µM. It also gave a TGI (T-47D breast) of over 10 µM, a TGI (PC-3 prostate) of over 10 µM and a TGI (K-562 leukemia) of over 10 µM. For the same compound, the TGI (SR leukemia) was over 10 µM, the TGI (BT-549 breast) was over 10 µM and the TGI (IGROV1 ovarian) was over 10 µM. For the same compound, the TGI (OVCAR-4 ovarian) was over 10 µM, the TGI (RXF 393 renal) was over 10 µM and the TGI (UACC-257 melanoma) was over 10 µM. It also gave a TGI (HCT-116 colon) of over 10 µM and a TGI (TK-10 renal) of over 10 µM.
